According to patent US10881641B2, “Methods and use of compounds that bind to RelA of NF-kB” (Cedars-Sinai Medical Center, priority 2015, dated 2021):
“Also recorded” adds a separate entry of the source.

Key:
RelA(p65) = target: T1, RelA(p65) (Homo sapiens, UniProt Q04206); assay: nuclear localization of RelA by immunofluorescent staining; assay type: cell-based; conditions: TNBC cell lines, 20 mM CRL1101 in 1% DMSO, 45 minutes, FIG. 2
T1 construct: endogenous in cells
Experimental: Cells were grown in Dulbecco's modified Eagle medium supplemented with 10% heat-inactivated fetal calf serum and 1% (w/v) penicillin/streptomycin (all purchased from Mediatech Inc, Manassas, Va., USA). Cells were treated with or without 20 mM of CRL1101 in 1% DMSO. Forty five minutes after treatment, cells were fixed with 4% formaldehyde for 10 min and sequentially treated with 0.1% Triton X 100 for 10 min. Cells were blocked in 1% BSA in PBS for 10 min. cells were incubated with anti-Re/A(p65) antibody (1:150, Abeam, Cambridge, UK) in PBS with 1% BSA overnight at 4° C. and a secondary antibody (1:1000 anti-rabbit Alexa 488, Invitrogen, Carlsbad, Calif., USA) for 1 hr in the dark. Analyses were performed using a microscope (Nikon ECLIPSE Ti-U, Nikon, Tokyo, JAPAN).

MDA-MB-231 cells = assay: xenograft breast cancer model, tumor growth; assay type: in vivo, athymic mice; conditions: 25 mg/kg/day IP for 4 weeks, compared to vehicle, N=6, FIG. 3
Experimental: Mice were administrated 25 mg/kg/day of CRL1101 or vehicle IP, as indicated by arrows. Results are given as mean tumor volume +− s.e. […] N=6. Therapeutic efficacy of CRL1101 was tested in xenograft breast cancer model. Briefly, triple-negative breast cancer cells, MDA-MB-231 were used to grow tumor in athymic mice. Mice were treated with 25 mg/kg/day, IP for 4 weeks. The control group was treated with vehicle.

breast cancer cells = assay: anchorage independent growth assay (colony formation, clonogenic survival); assay type: cell-based; conditions: 15 uM CRL1101 added after 24 hours, 14 days, soft agarose, FIG. 1B
Experimental: The effects of CRL1101 on clonogenic survival were analyzed. Base layers consisting of growth medium containing 0.53% low-melting point agarose (Invitrogen) were poured onto 6-well plates and allowed to solidify. Cells were seeded at concentration of 10000/well in triplicate in top layers consisting of growth medium containing 0.32% agarose. After 24 hours, 15, uM of CRL1101 was added. Cells were incubated for 14 days to form visible colonies. The colonies were fixed and stained by 0.05% Crystal violet in 50% methanol.

[1] = test system: triple-negative breast cancer cell lines; assay: cell proliferation by calorimetric assay (MTT); assay type: cell-based; conditions: FIG. 1A

T1 sequence (Q04206 whole entry): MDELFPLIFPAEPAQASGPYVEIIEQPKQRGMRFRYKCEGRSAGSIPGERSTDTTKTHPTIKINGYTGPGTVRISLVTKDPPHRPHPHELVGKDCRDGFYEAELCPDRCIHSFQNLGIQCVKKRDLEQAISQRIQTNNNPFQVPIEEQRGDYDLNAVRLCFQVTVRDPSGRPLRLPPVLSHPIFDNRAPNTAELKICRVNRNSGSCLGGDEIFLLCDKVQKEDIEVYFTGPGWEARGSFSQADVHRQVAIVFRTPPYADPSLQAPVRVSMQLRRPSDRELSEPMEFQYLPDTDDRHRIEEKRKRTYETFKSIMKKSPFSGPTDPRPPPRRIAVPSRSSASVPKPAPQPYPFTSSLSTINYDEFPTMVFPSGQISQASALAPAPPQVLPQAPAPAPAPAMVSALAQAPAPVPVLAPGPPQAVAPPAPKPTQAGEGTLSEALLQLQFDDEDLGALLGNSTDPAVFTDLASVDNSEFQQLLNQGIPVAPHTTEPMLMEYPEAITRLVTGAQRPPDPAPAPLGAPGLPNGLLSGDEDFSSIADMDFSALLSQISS

## Cl.O=[N+]([O-])c1cc(S(=O)(=O)CCCN2CCOCC2)ccc1F [CRL1101]
RelA(p65)
  nuclear localization of RelA: significantly inhibited
MDA-MB-231 cells
  tumor growth (mean tumor volume): significant reduction in tumor growth; also recorded: significant (p<0.001) compared to vehicle
Breast cancer cells
  colony formation: significantly inhibited
[1]; all the three TNBC cell lines, MTT, read-out: IC50, inhibition of TNBC cell line proliferation
  IC50: 20 µM
[1]; breast cancer cells
  cell proliferation: significantly inhibited
